According to article PMC7649747, “The startle disease mutation α1S270T predicts shortening of glycinergic synaptic currents” (The Journal of Physiology, 2020):
Substitutions are numbered along the chain they refer to.

Assays:
homomeric α1 GlyR [1] = molecular target: T1, homomeric α1 GlyR (Homo sapiens, UniProt P23415); assay: whole-cell patch clamp, U-tube application, Hill fit of peak currents; format: cell-based
T1 construct: gene GLRA1; full-length subunit, pcDNA3.1, transient expression in HEK293A; homopentamer; eGFP from separate plasmid
T1 sequence (P23415 29-457): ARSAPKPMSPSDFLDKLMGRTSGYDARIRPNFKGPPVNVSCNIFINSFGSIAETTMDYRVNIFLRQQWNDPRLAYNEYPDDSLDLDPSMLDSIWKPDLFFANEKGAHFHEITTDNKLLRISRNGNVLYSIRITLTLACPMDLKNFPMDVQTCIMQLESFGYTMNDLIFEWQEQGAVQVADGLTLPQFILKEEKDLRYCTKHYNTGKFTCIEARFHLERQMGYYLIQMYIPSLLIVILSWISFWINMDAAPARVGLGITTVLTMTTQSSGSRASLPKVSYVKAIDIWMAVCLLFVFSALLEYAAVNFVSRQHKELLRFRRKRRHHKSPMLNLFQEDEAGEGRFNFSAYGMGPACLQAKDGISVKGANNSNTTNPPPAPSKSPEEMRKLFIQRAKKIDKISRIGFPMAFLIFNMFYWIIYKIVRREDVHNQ
Description: (§1) whole-cell patch clamp, U-tube application, Hill fit of peak currents on homomeric α1 GlyR

homomeric α1 GlyR [2] = molecular target: T2, homomeric α1 GlyR (Homo sapiens, UniProt P23415, S298T); assay: as above; format: cell-based
T2 construct: gene GLRA1; full-length subunit, pcDNA3.1, transient expression in HEK293A; homopentamer; eGFP from separate plasmid
T2 sequence (P23415 29-457 S298T): T1 sequence (P23415 29-457) with S270T
Description: as §1

CNCC(=O)O [sarcosine]
EC50 (homomeric α1 GlyR [1]): 14 ± 6 mM | EC50 (homomeric α1 GlyR [2]): 23 ± 3 mM
